# Data reported in patent publication US7582611B2, “Motilide compounds” (Pfizer Inc., priority 2005, dated 2009).
# Legend:
# Motilin Receptor = molecular target: T1, Motilin Receptor (Oryctolagus cuniculus, UniProt G1T803); test: Tissue based assay for motilin agonist potency (rabbit duodenum contractility); assay type: cell-based; conditions: rabbit duodenum strips, contraction normalized to 1 μM carbachol; read-out: Motilin Receptor Agonist Activity (EC50)
# T1 construct: strips of longitudinal smooth muscle were sliced from the segments; from tissue; host or cells: rabbit duodenum longitudinal smooth muscle strips
# T1 sequence (G1T803 1-400): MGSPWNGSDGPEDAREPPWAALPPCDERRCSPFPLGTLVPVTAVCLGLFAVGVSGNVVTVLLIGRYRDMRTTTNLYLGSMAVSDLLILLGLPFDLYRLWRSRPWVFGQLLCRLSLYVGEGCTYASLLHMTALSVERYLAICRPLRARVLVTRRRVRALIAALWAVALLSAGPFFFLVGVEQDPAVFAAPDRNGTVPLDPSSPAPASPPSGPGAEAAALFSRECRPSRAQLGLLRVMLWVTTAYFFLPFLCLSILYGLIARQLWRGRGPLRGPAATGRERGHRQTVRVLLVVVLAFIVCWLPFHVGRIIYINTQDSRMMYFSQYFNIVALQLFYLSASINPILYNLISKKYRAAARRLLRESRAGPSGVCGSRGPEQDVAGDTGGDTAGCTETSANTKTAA
# Description: The motilin agonist potencies of compounds of this invention were evaluated using a tissue based assay, using rabbit duodenum tissue-based contractility assay, generally following the procedure of Depoortere et al., J. Gastrointestinal Motility, 1, 150-159 (1989), the disclosure of which is incorporated herein by reference. Briefly, this method measures the ability of a compound to induce contractions in rabbit duodenal tissue, a motilin receptor-bearing tissue contractilely responsive to motilin.
# Strips of rabbit duodenum were tested and qualified for use in the assay by as follows. Segments of rabbit duodenum, 20-30 cm distal to the pylorus were split longitudinally. The mucosa was removed and 2×2×15 mm strips of longitudinal smooth muscle were sliced from the segments. The strips were bathed in oxygenated Krebs solution at 37° C., with 1.5 g of tension, and contractions measured auxotonically.
# The carbachol was then washed away by changing the organ bath buffer twice. The strips were washed again 20±5 minutes following the carbachol contraction. Following this last wash a dose response study was initiated within 10±5 min. Each compound tested was dissolved in dimethylsulfoxide (DMSO) to a final concentration of 10 mM. A series of seven 10× serial dilutions in water was prepared, so that the concentration of the seventh serial dilution was 1.0×10^−6 mM. The first through fifth serial dilutions of the compound were applied, starting with 200 μL of the most dilute solution. After each application, there was a wait of 2±0.5 min, until the response was stable, before the application of the next dose (the next higher concentration serial dilution). The dose was increased in 10-fold increments until a small response was observed. Subsequent doses were the increased in 2- to 5-fold increments, until the maximum response was obtained. At 2±0.5 min after the last drug addition, the strips were dosed with 1 μM carbachol.
# The EC50 (concentration producing a half-maximal effect) was calculated as follows. The basal tension was subtracted from the compound-induced tension for each reading. The data points were normalized against the response obtained from 1 μM carbachol at the end of the experiment. The concentration of compound was plotted against the response and fitted to the following equation: R=(Rmax·C)/(EC50+C) where R is the contraction response, Rmax is the maximal contraction response, and C is the concentration of compound. Both R and Rmax are expressed as a fraction of the 1 μM carbachol contraction and range from 0 to 1.
# [1] = tested on: Streptococcus pneumoniae ATCC 6301; test: Evaluation of antibacterial activity (MIC, serial dilutions on 96-well microtiter plates); assay type: cell-based; conditions: ATCC6301, read-out: Antibacterial Activity (MIC, μg/mL)
EC50 (Motilin Receptor),MIC [1],SMILES
66 nM,–,CC[C@H]1OC(=O)[C@H](C)[C@@H](O[C@H]2C[C@@](C)(OC)[C@@H](O)[C@H](C)O2)[C@H](C)[C@@H](O[C@@H]2O[C@H](C)C[C@H](N(C)C(C)C)[C@H]2O)[C@](C)(O)C[C@@H](C)[C@H](OC)[C@H](C)[C@@H](O)[C@]1(C)O [Compound A-1]
140 nM,64 µg/mL,CC[C@H]1OC(=O)[C@H](C)[C@@H](O[C@H]2C[C@@](C)(OC)[C@@H](O)[C@H](C)O2)[C@H](C)[C@@H](O[C@@H]2O[C@H](C)C[C@H](N(C)CCO)[C@H]2O)[C@](C)(O)C[C@@H](C)[C@H](OC)[C@H](C)[C@@H](O)[C@]1(C)O [Compound A-2]
54 nM,64 µg/mL,CC[C@H]1OC(=O)[C@H](C)[C@@H](O[C@H]2C[C@@](C)(OC)[C@@H](O)[C@H](C)O2)[C@H](C)[C@@H](O[C@@H]2O[C@H](C)C[C@H](N(C)C(C)C)[C@H]2O)[C@](C)(O)C[C@@H](C)[C@H](OCCO)[C@H](C)[C@@H](O)[C@]1(C)O [Compound A-3]
320 nM,64 µg/mL,CC[C@H]1OC(=O)[C@H](C)[C@@H](O[C@H]2C[C@@](C)(OC)[C@@H](O)[C@H](C)O2)[C@H](C)[C@@H](O[C@@H]2O[C@H](C)C[C@H](N(C)C(C)C)[C@H]2O)[C@](C)(O)C[C@@H](C)[C@H](OCCOC)[C@H](C)[C@@H](O)[C@]1(C)O [Compound A-5]
1100 nM,128 µg/mL,CC[C@H]1OC(=O)[C@H](C)[C@@H](O[C@H]2C[C@@](C)(OC)[C@@H](O)[C@H](C)O2)[C@H](C)[C@@H](O[C@@H]2O[C@H](C)C[C@H](N(C)C[C@H](C)O)[C@H]2O)[C@](C)(O)C[C@@H](C)[C@H](OCCOC)[C@H](C)[C@@H](O)[C@]1(C)O [Compound A-6]
210 nM,> 128 µg/mL,CC[C@H]1OC(=O)[C@H](C)[C@@H](O[C@H]2C[C@@](C)(OC)[C@@H](O)[C@H](C)O2)[C@H](C)[C@@H](O[C@@H]2O[C@H](C)C[C@H](N(C)C(C)C)[C@H]2O)[C@](C)(O)C[C@@H](C)[C@H](OCC#N)[C@H](C)[C@@H](O)[C@]1(C)O [Compound A-7]
740 nM,> 128 µg/mL,CC[C@H]1OC(=O)[C@H](C)[C@@H](O[C@H]2C[C@@](C)(OC)[C@@H](O)[C@H](C)O2)[C@H](C)[C@@H](O[C@@H]2O[C@H](C)C[C@H](N(C)C[C@H](C)O)[C@H]2O)[C@](C)(O)C[C@@H](C)[C@H](OCC(=O)O)[C@H](C)[C@@H](O)[C@]1(C)O [Compound A-11]
52 nM,64 µg/mL,CC[C@H]1OC(=O)[C@H](C)[C@@H](O[C@H]2C[C@@](C)(OC)[C@@H](O)[C@H](C)O2)[C@H](C)[C@@H](O[C@@H]2O[C@H](C)C[C@H](N(C)C(C)C)[C@H]2O)[C@](C)(O)C[C@@H](C)[C@H](OCC(N)=O)[C@H](C)[C@@H](O)[C@]1(C)O [Compound A-12]
104 nM,> 128 µg/mL,CC[C@H]1OC(=O)[C@H](C)[C@@H](O[C@H]2C[C@@](C)(OC)[C@@H](O)[C@H](C)O2)[C@H](C)[C@@H](O[C@@H]2O[C@H](C)C[C@H](N(C)C[C@H](C)O)[C@H]2O)[C@](C)(O)C[C@@H](C)[C@H](OCC(N)=O)[C@H](C)[C@@H](O)[C@]1(C)O [Compound A-14]
220 nM,–,CC[C@H]1OC(=O)[C@H](C)[C@@H](O[C@H]2C[C@@](C)(OC)[C@@H](O)[C@H](C)O2)[C@H](C)[C@@H](O[C@@H]2O[C@H](C)C[C@H](N(C)C3CCC3)[C@H]2O)[C@](C)(O)C[C@@H](C)[C@H](OC)[C@H](C)[C@@H](O)[C@]1(C)O [Compound A-47]

# The next lines start with the molecule.
SMILES,EC50 (Motilin Receptor),MIC [1]
"CC[C@H]1OC(=O)[C@H](C)[C@@H](OC2C[C@@](C)(OC)C[C@H](C)O2)[C@H](C)[C@@H](OC2O[C@H](C)C[C@H](N(C)CC)[C@H]2O)[C@@]2(C)CC(C)=C(O2)[C@H](C)[C@@H](O)[C@H]1C (stereo partly drawn) [ABT-229, reference compound]",7 nM,64 µg/mL
CCOC(=O)CO[C@@H]1[C@H](C)[C@@H](O)[C@](C)(O)[C@@H](CC)OC(=O)[C@H](C)[C@@H](O[C@H]2C[C@@](C)(OC)[C@@H](O)[C@H](C)O2)[C@H](C)[C@@H](O[C@@H]2O[C@H](C)C[C@H](N(C)C(C)C)[C@H]2O)[C@](C)(O)C[C@H]1C [Compound A-8],88 nM,128 µg/mL
CCOC(=O)CO[C@@H]1[C@H](C)[C@@H](O)[C@](C)(O)[C@@H](CC)OC(=O)[C@H](C)[C@@H](O[C@H]2C[C@@](C)(OC)[C@@H](O)[C@H](C)O2)[C@H](C)[C@@H](O[C@@H]2O[C@H](C)C[C@H](N(C)C[C@H](C)O)[C@H]2O)[C@](C)(O)C[C@H]1C [Compound A-9],430 nM,> 128 µg/mL
CCOC(=O)CO[C@@H]1[C@H](C)[C@@H](O)[C@](C)(O)[C@@H](CC)OC(=O)[C@H](C)[C@@H](O[C@H]2C[C@@](C)(OC)[C@@H](O)[C@H](C)O2)[C@H](C)[C@@H](O[C@@H]2O[C@H](C)C[C@H](N(C)C3CCC3)[C@H]2O)[C@](C)(O)C[C@H]1C [Compound A-10],680 nM,> 128 µg/mL
CC[C@H]1OC(=O)[C@H](C)[C@@H](O[C@H]2C[C@@](C)(OC)[C@@H](O)[C@H](C)O2)[C@H](C)[C@@H](O[C@@H]2O[C@H](C)C[C@H](N(C)C3CCC3)[C@H]2O)[C@](C)(O)C[C@@H](C)[C@H](OCC(N)=O)[C@H](C)[C@@H](O)[C@]1(C)O [Compound A-13],220 nM,> 128 µg/mL
CC[C@H]1OC(=O)[C@H](C)[C@@H](O[C@H]2C[C@@](C)(OC)[C@@H](O)[C@H](C)O2)[C@H](C)[C@@H](O[C@@H]2O[C@H](C)C[C@H](N(C)C(C)C)[C@H]2O)[C@](C)(O)C[C@@H](C)[C@H](OCC(=O)N(C)C)[C@H](C)[C@@H](O)[C@]1(C)O [Compound A-15],660 nM,64 µg/mL
CC[C@H]1OC(=O)[C@H](C)[C@@H](O[C@H]2C[C@@](C)(OC)[C@@H](O)[C@H](C)O2)[C@H](C)[C@@H](O[C@@H]2O[C@H](C)C[C@H](N(C)C[C@H](C)O)[C@H]2O)[C@](C)(O)C[C@@H](C)[C@H](OCC(=O)N(C)C)[C@H](C)[C@@H](O)[C@]1(C)O [Compound A-16],2900 nM,> 128 µg/mL
CC[C@H]1OC(=O)[C@H](C)[C@@H](O[C@H]2C[C@@](C)(OC)[C@@H](O)[C@H](C)O2)[C@H](C)[C@@H](O[C@@H]2O[C@H](C)C[C@H](N(C)C(C)C)[C@H]2O)[C@](C)(OC)C[C@@H](C)[C@H](OCC(=O)NC)[C@H](C)[C@@H](O)[C@]1(C)O [Compound A-66],400 nM,–
CC[C@H]1OC(=O)[C@H](C)[C@@H](O[C@H]2C[C@@](C)(OC)[C@@H](O)[C@H](C)O2)[C@H](C)[C@@H](O[C@@H]2O[C@H](C)C[C@H](N(C)C(C)C)[C@H]2O)[C@](C)(O)C[C@@H](C)[C@H](OCC(=O)NOC)[C@H](C)[C@@H](O)[C@]1(C)O [Compound A-69],92 nM,–
CC[C@H]1OC(=O)[C@H](C)[C@@H](O[C@H]2C[C@@](C)(OC)[C@@H](O)[C@H](C)O2)[C@H](C)[C@@H](O[C@@H]2O[C@H](C)C[C@H](N(C)C(C)C)[C@H]2O)[C@](C)(O)C[C@@H](C)[C@H](OCCNC=O)[C@H](C)[C@@H](O)[C@]1(C)O [Compound A-78],31 nM,–
CC[C@H]1OC(=O)[C@H](C)[C@@H](O[C@H]2C[C@@](C)(OC)[C@@H](O)[C@H](C)O2)[C@H](C)[C@@H](O[C@@H]2O[C@H](C)C[C@H](N(C)C(C)C)[C@H]2O)[C@](C)(O)C[C@@H](C)[C@H](OC(=O)NC)[C@H](C)[C@@H](O)[C@]1(C)O [Compound A-79],400 nM,–
